Experimental data published in US20170218375A1, “MORPHOLINOS, MORPHOLINO UPREGULATING, AND ASSOCIATED METHODS” (University of Utah Research Foundation, priority 2011, published 2017).
{Dendrimer} = dendrimer conjugate (vivo-morpholino)

How the values were obtained:
[1] = test system: corneal transplant rejection; experiment: Mouse corneal transplantation model; format: in vivo
Protocol: It was also examined whether moVEGFR2_MOe13 can suppress murine corneal transplant rejection. After cornea transplantation, moVEGFR2_MOe13, STD_MO or DPBS were injected subconjuctivally. […] The arrow indicates censored data. […] Scale bar is 1 mm. FIGS. 12(c, d) Show the mean area of corneal neovascularization and lymphangiogenesis at 8 weeks respectively (n=11-17). Risk factors (p-value) were calculated by two-tail student's t-test (*: p<0.05, **p<0.01). Error bar is ±s.e.m.
Mouse corneal transplantation has been described previously. The donor cornea was marked with 2 mm trephine, the anterior chamber was penetrated using a knife (ClearCut™ Alcon, Inc) and the cornea was cut with Vannas scissors and then placed in Balanced Salt Solution (BSS® Alcon Laboratories, Inc, Fort Worth). The recipient mouse was anesthetized by intramuscular injection with ketamine (100 mg/kg body weight) and xylazine (20 mg/kg body weight). To dilate pupil and anesthetize the cornea, 1% tropicamide ophthalmic solution and 0.5% proparacaine ophthalmic solution were used. The recipient's right cornea was marked with 1.5 mm trephine and removed by the same method as the donor cornea. Viscoelastic material (Healon, 1% sodium hyaluronate, Abbott Medical Optics, IL) was used during recipient cornea dissection. […]

[2] = test system: laser-induced choroidal neovascularization (CNV); experiment: Laser-induced choroidal neovascularization (CNV) in mouse; format: in vivo
Protocol: It was also examined whether moVEGFR2_MOe13 inhibits laser-induced choroidal neovascularization (CNV). Each morpholino or DPBS was injected intravitreously on day 1 and day 4 after laser photocoagulation, and laser CNV volumes were examined on day 7. […] Vessel endothelial cells were stained with Alexa fluor488 conjugated isolectin GS-IB4. […] After photocoagulation, on day 1 and day 4, 2 ul of 100 ng/μl STD_MO, 500 ng/μl Goat IgG (AB-108-C, R&D Systems, Minneapolis, Minn.), 100 ng/μl moVEGFR2_MOe13, 500 ng/μl Goat Anti-mouse VEGF-A IgG (AF-493-NA, R&D Systems, Minneapolis, Minn.) or 2 ng/μl SU1498 (572888, EMD chemicals, Gibbstown, N.J.) was injected intravitreously. On day 7, CNV volumes were measured by confocal microscope. n=14-20 for each group. Risk factors (p-value) were calculated by two-tail student's t-test (*: p<0.05, **p<0.01). Error bar is ±s.e.m.
Each morpholino oligomer was purchased from Gene Tools (Philomath, Oreg.). The sequences of each morpholino oligomer and primers for PCR are listed in supplemental Table. HUVECs (Lonza, Walkersville, Md.) were cultured in EBM with EGM SingleQuot Kit supplements and growth factors according to the manufacturer's instructions (Lonza, Walkersville, Md.). MS-1 cells, a mouse endothelial cell line (ATCC, Manassas, Va.) were cultured in 5% FBS/DMEM. Morpholino oligomers were delivered to the nucleus by nucleofection (Amaxa, Gaithersburg, Md.) with a Basic Nucleofector Kit for Primary Mammalian Endothelial Cells (Amaxa, Gaithersburg, Md.) using program A-034 for HUVEC and MS-1 cells. For each nucleofection, 1×10^6 cells were used and plated on a 6-well plate. After 2 days of culture, cells were trypsinized and total RNA was extracted using a RNeasy mini kit (Qiagen, Valencia, Calif.) with DNaseI treatment. Detection of mbVEGFR2 was achieved by flow cytometry. […] The cells were washed three times and fluorescence was detected by a FACScan Analyzer (BD Biosciences, San Jose, Calif.). […]

5′-cacccagggatgcctccatacCTAG-3′ (antisense CACCCAGGGATGCCTCCATACCTAG; all phosphorodiamidate morpholino (PMO), 3' {Dendrimer}) [moVEGFR2_MOe13, morpholino that targets the exon13-intron13 junction of the mouse VEGFR2 gene; in vivo conjugated with a dendrimer (vivo-morpholino)]
corneal neovascularization and lymphangiogenesis at 8 weeks ([1]; mean area, CD31 and LYVE-1 stained cornea at the endpoint (8 weeks), FIGS. 12C, D): decreased
graft survival ([1]; mouse cornea transplantation, 15 ul of 40 ng/μl subconjunctivally day of transplantation and weeks 1-4, compared with DPBS and STD_MO (log rank p=0.0186 and 0.0610)): increased
suppression of CNV compared with anti-VEGF-A IgG and SU1498 (FIG. 9) ([2]; 2 μl intravitreously day 1 and day 4: 100 ng/μl moVEGFR2_MOe13, 500 ng/μl anti-mouse VEGF-A IgG, 2 ng/μl SU1498, CNV volume day 7): comparable
laser CNV volume ([2]; intravitreous injection on day 1 and day 4 after laser photocoagulation, volume on day 7, compared with STD_MO (p<0.05) and DPBS (p<0.01)): significantly suppressed
